Experimental data as given in patent publication US20250221932A1, “IMMUNE ENHANCEMENT OF CANCER TREATMENT” (Spark Therapeutics, Inc., priority 2022, published 2025).

How the values were obtained:
[1] = tested on: serum cytokines/chemokines; experiment: Serum cytokine levels 4 hours after dosing in the AML model; assay type: in vivo, mice (C57BL/6); details: 4 hours after first i.v. dose, 50 μg
Experimental: (§1) Three days post-tumor cell injection, treatment (vehicle, DNA-LNP (10 μg), ADU-S100 (50 μg)) was provided by 100 μL i.v. administration given three times (day 0, 3, 6). Vehicle was made of 20% Glucose/PBS solution. LNP composition (in mole %) was Lipid 9, ˜50% (Lipid 9 is further described in Section I.A. supra and Sabnis et al., (2018) Molecular Therapy 26:6, 1509-1519); C14-PEG2000, ˜1.5%; cholesterol, ˜38.5%; and distearoylphosphatidylcholine (DSPC), ˜10%. ADU-S100 is a STING agonist (MedChemExpress).
(§2) Serum was collected 4 hours after the first dose for cytokine/chemokine analyses. Mice (n=8) were observed daily for abnormalities and euthanized individually when the animal reached the humane endpoint.
Three days post-tumor cell injection, treatment (vehicle, DNA-LNP (5 μg), DNA-LNP2 (5 μg)) was provided by 100 μL i.v. administration given three times (day 0, 3, 6). Serum was collected 4 hours after the first dose for cytokine/chemokine analyses. Mice (n=8) were observed daily for abnormalities and euthanized individually when the animal reached the humane endpoint.

C1498 cells = experiment: Acute myeloid leukemia (AML) model, survival; assay type: in vivo, mice (C57BL/6); details: 50 μg i.v. day 0, 3, 6; FIG. 9
Experimental: The ability of nanoparticle dsDNA delivery to inhibit leukemia was evaluated in a mouse model for acute myeloid leukemia (AML). The AML model was established by intravenously (i.v.) injecting C57BL/6 mice with 1×10^6 C1498 cells. (See Zhang et al., Blood 2009; 114 (8): 1545-1552 and Curran et al., 2016, Cell Reports 15, 2357-2366).
as §1, §2
The ability of nanoparticle dsDNA delivery to inhibit leukemia was evaluated in the AML mouse model described in Example 5. Three days post-tumor cell injection, administration of vehicle, LNP (same amount of LNP as used in 5 μg DNA-LNP), DNA-LNP (1 μg), DNA-LNP (5 μg) was provided by 100 μL i.v. given three times (day 0, 3, 6). […]

Nc1ncnc2c1ncn2[C@@H]1O[C@@H]2COP(=O)([S-])O[C@@H]3[C@H](O)[C@@H](COP([O-])(=S)O[C@H]2[C@H]1O)O[C@H]3n1cnc2c(N)ncnc21.[Na+].[Na+] (stereo partly shown) [ADU-S100]
Serum level GRO alpha, Average [1]: 134 pg/mL | Serum level IFN alpha, Average [1]: 1775 pg/mL | Serum level IFN beta, Average [1]: 2819 pg/mL | Serum level IFN gamma, Average [1]: 7 pg/mL | Serum level IL-6, Average [1]: 2617 pg/mL | Serum level IL-18, Average [1]: 150 pg/mL | Serum level MCP-1, Average [1]: 5571 pg/mL | Serum level MIP-1 beta, Average [1]: 640 pg/mL | Serum level TNF alpha, Average [1]: 732 pg/mL | survival in the AML model (C1498 cells): increased survival
